Experimental findings from patent US9187472B2 (AbbVie Inc., priority 2012, dated 2015) are described below.

The term IC50 denotes the concentration that gives 50% inhibition. A low value points to greater potency in that assay.

The assay deals with PC3 cells. Kind of assay: NAMPT Cell Proliferation Assay. The format is cell-based. As to conditions: Homo sapiens, PC-3, 120 h, 5 days incubation, cell viability by Cell Titer Glo. A digest of the protocol: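 Seed PC3 at 500 cells/well (RPMI, 10% HI-FBS), attach overnight; add compound, 10-fold series 10 μM → 1×10^−5 μM; incubate 5 d, 37° C/5% CO2; luminescent viability readout; fit % inhibition sigmoidally for IC50.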
A general note: In ATP-based viability assays light output follows the ATP content of the culture.
Molecule `CC(C)c1nc(C(=O)N2CCC(c3ccc(NC(=O)NCc4ccn5ccnc5c4)cc3)CC2)co1` [Example 1145, 1-(imidazo[1,2-a]pyridin-7-ylmethyl)-3-[4-(1-{[2-(propan-2-yl)-1,3-oxazol-4-yl]carbonyl}piperidin-4-yl)phenyl]urea] yielded an IC50 of 7.04 nM.
`Cn1ncc2cccc(C(=O)N3CCC(c4ccc(NC(=O)NCc5ccn6ccnc6c5)cc4)CC3)c21` [Example 1146, 1-(imidazo[1,2-a]pyridin-7-ylmethyl)-3-(4-{1-[(1-methyl-1H-indazol-7-yl)carbonyl]piperidin-4-yl}phenyl)urea] returned an IC50 of 1.88 nM.
Consider `COc1ncc(C)cc1C(=O)N1CCC(c2ccc(NC(=O)NCc3ccn4ccnc4c3)cc2)CC1` [Example 1147, 1-(imidazo[1,2-a]pyridin-7-ylmethyl)-3-(4-{1-[(2-methoxy-5-methylpyridin-3-yl)carbonyl]piperidin-4-yl}phenyl)urea], for which inhibition was half-maximal at 2.83 nM (IC50).
For `COc1ccc(C(=O)N2CCC(c3ccc(NC(=O)NCc4ccn5ccnc5c4)cc3)CC2)nc1OC` [Example 1148, 1-(4-{1-[(5,6-dimethoxypyridin-2-yl)carbonyl]piperidin-4-yl}phenyl)-3-(imidazo[1,2-a]pyridin-7-ylmethyl)urea], the IC50 worked out at 2.72 nM.
`Cn1cc2c(C(=O)N3CCC(c4ccc(NC(=O)NCc5ccn6ccnc6c5)cc4)CC3)cccc2n1` [Example 1149, 1-(imidazo[1,2-a]pyridin-7-ylmethyl)-3-(4-{1-[(2-methyl-2H-indazol-4-yl)carbonyl]piperidin-4-yl}phenyl)urea] returned an IC50 of 2.62 nM.
With `CCC1CCCCN1C(=O)C(=O)N1CCC(c2ccc(NC(=O)NCc3ccn4ccnc4c3)cc2)CC1` (stereo not drawn) [Example 1150, 1-(4-{1-[(2-ethylpiperidin-1-yl)(oxo)acetyl]piperidin-4-yl}phenyl)-3-(imidazo[1,2-a]pyridin-7-ylmethyl)urea] the figure was 64.1 nM; with `Cn1cc2ccc(C(=O)N3CCC(c4ccc(NC(=O)NCc5ccn6ccnc6c5)cc4)CC3)cc2n1` [Example 1151, 1-(imidazo[1,2-a]pyridin-7-ylmethyl)-3-(4-{1-[(2-methyl-2H-indazol-6-yl)carbonyl]piperidin-4-yl}phenyl)urea], 7.78 nM.
Molecule `Cn1ncc2c(C(=O)N3CCC(c4ccc(NC(=O)NCc5ccn6ccnc6c5)cc4)CC3)cccc21` [Example 1152, 1-(imidazo[1,2-a]pyridin-7-ylmethyl)-3-(4-{1-[(1-methyl-1H-indazol-4-yl)carbonyl]piperidin-4-yl}phenyl)urea] registered an IC50 of 3.08 nM.
For the molecule `O=C(NCc1ccn2ccnc2c1)Nc1ccc(C2CCN(C(=O)c3ccoc3C(F)(F)F)CC2)cc1` [Example 1153, 1-(imidazo[1,2-a]pyridin-7-ylmethyl)-3-[4-(1-{[2-(trifluoromethyl)furan-3-yl]carbonyl}piperidin-4-yl)phenyl]urea], the IC50 worked out at 1.72 nM.
The molecule `O=C(NCc1ccn2ccnc2c1)c1ccc(C2=CCN(c3ccncn3)CC2)cc1` [Example 1154, N-(imidazo[1,2-a]pyridin-7-ylmethyl)-4-[1-(pyrimidin-4-yl)-1,2,3,6-tetrahydropyridin-4-yl]benzamide] yielded a half-maximal inhibitory concentration (IC50) of 170 nM.
Molecule `O=C(NCc1ccn2ccnc2c1)c1ccc(C2=CCN(c3cc(C(F)(F)F)ncn3)CC2)cc1` [Example 1156, N-(imidazo[1,2-a]pyridin-7-ylmethyl)-4-{1-[6-(trifluoromethyl)pyrimidin-4-yl]-1,2,3,6-tetrahydropyridin-4-yl}benzamide] came in with an IC50 of 35.4 nM.
In the case of `CNCCOC12CC3(C)CC(C)(CC(Cn4ncc(-c5ccc(C(=O)NCc6ccn7ccnc7c6)s5)c4C)(C3)C1)C2` [Example 1157, 5-[1-({3,5-dimethyl-7-[2-(methylamino)ethoxy]tricyclo[3.3.1.1^3,7]dec-1-yl}methyl)-5-methyl-1H-pyrazol-4-yl]-N-(imidazo[1,2-a]pyridin-7-ylmethyl)thiophene-2-carboxamide], the IC50 turned out to be 53.1 nM.
With `CC1(C(=O)N2CCC(c3ccc(C(=O)NCc4cn5ccnc5cn4)c(F)c3)CC2)CC1` [Example 1158, 2-fluoro-N-(imidazo[1,2-a]pyrazin-6-ylmethyl)-4-{1-[(1-methylcyclopropyl)carbonyl]piperidin-4-yl}benzamide] the figure was 2.04 nM; with `O=C(NCc1cn2ccnc2cn1)c1ccc(C2CCN(C(=O)c3ccccc3)CC2)cc1F` [Example 1159, 4-(1-benzoylpiperidin-4-yl)-2-fluoro-N-(imidazo[1,2-a]pyrazin-6-ylmethyl)benzamide], 17.4 nM.
As for `CC(C)C(=O)N1CCC(c2ccc(C(=O)NCc3cn4ccnc4cn3)c(F)c2)CC1` [Example 1160, 2-fluoro-N-(imidazo[1,2-a]pyrazin-6-ylmethyl)-4-[1-(2-methylpropanoyl)piperidin-4-yl]benzamide], inhibition was half-maximal at 16.3 nM (IC50).
`O=C(NCc1cn2ccnc2cn1)c1ccc(C2CCN(C(=O)CC(F)(F)F)CC2)cc1F` [Example 1161, 2-fluoro-N-(imidazo[1,2-a]pyrazin-6-ylmethyl)-4-[1-(3,3,3-trifluoropropanoyl)piperidin-4-yl]benzamide] yielded a half-inhibitory concentration (IC50) of 61 nM.
`O=C(Cc1ccc2nncn2c1)Nc1ccc(C2CCN(C(=O)c3ccccc3F)CC2)cc1` [Example 1162, N-{4-[1-(2-fluorobenzoyl)piperidin-4-yl]phenyl}-2-([1,2,4]triazolo[4,3-a]pyridin-6-yl)acetamide] had an IC50 of 61.8 nM.
With `CC1(Cn2cc(-c3ccc(C(=O)NCc4ccn5ccnc5c4)s3)cn2)CCN(CCN2CCNCC2)CC1` [Example 1163, N-(imidazo[1,2-a]pyridin-7-ylmethyl)-5-[1-({4-methyl-1-[2-(piperazin-1-yl)ethyl]piperidin-4-yl}methyl)-1H-pyrazol-4-yl]thiophene-2-carboxamide] the figure was 2.7 nM; with `CC1(Cn2cc(-c3ccc(C(=O)NCc4ccn5ccnc5c4)s3)cn2)CCN(C(=O)CSC[C@H](N)C(=O)O)CC1` [Example 1164, S-(2-{4-[(4-{5-[(imidazo[1,2-a]pyridin-7-ylmethyl)carbamoyl]thiophen-2-yl}-1H-pyrazol-1-yl)methyl]-4-methylpiperidin-1-yl}-2-oxoethyl)-L-cysteine], 158 nM.
In the case of `CC1(Cn2cc(-c3ccc(C(=O)NCc4ccn5ccnc5c4)s3)cn2)CCN(C(=O)CCOCCOCCOCCOCCN)CC1` [Example 1165, 5-(1-{[1-(15-amino-4,7,10,13-tetraoxapentadecan-1-oyl)-4-methylpiperidin-4-yl]methyl}-1H-pyrazol-4-yl)-N-(imidazo[1,2-a]pyridin-7-ylmethyl)thiophene-2-carboxamide], half-maximal inhibition (IC50) required 577 nM.
With `CC1(Cn2cc(-c3ccc(C(=O)NCc4ccn5ccnc5c4)s3)cn2)CCN(C(=O)CCNC(=O)CSC[C@H](N)C(=O)O)CC1` [Example 1166, S-{2-[(3-{4-[(4-{5-[(imidazo[1,2-a]pyridin-7-ylmethyl)carbamoyl]thiophen-2-yl}-1H-pyrazol-1-yl)methyl]-4-methylpiperidin-1-yl}-3-oxopropyl)amino]-2-oxoethyl}-L-cysteine] the figure was 26.1 nM.
